Publication PMC10343472, “Cyclopentenylcytosine (CPE-C): In Vitro and In Vivo Evaluation as an Antiviral against Adenoviral Ocular Infections” (Molecules, 2023)
Read-outs that look alike come from different tables or passages of the source.

Tests used:
HAdV8 = assay: plaque reduction assay in A549 cells, HAdV8; type: cell-based; conditions: Human adenovirus sp.
Method: (§1) The in vitro antiviral testing was done using a standard plaque reduction assay with A549 human lung carcinoma cells as previously described. The EC50s were determined using a Fitted Line Plot Regression analysis with Minitab Version 21 software. The EC50 is the effective concentration that inhibits plaque formation by 50%. The HAdV types tested represent the most common adenovirus serotypes that cause ocular infections (HAdV8, HAdV19/64, HAdV37 (EKC); HAdV3, HAdV4, HAdV7a (follicular conjunctivitis)) and serotypes that cause conjunctivitis and can replicate in the rabbit ocular model (HAdV1, HAdV2, HAdV5).
(§2) For the in vitro antiviral testing, clinical adenovirus isolates of types HAdV1, HAdV2, HAdV3, HAdV4, HAdV5, HAdV7a, HAdV8, and HAdV19/64 were anonymously collected from patients presenting with typical adenoviral conjunctivitis at the Charles T. Campbell Ophthalmic Microbiology Laboratory at the UPMC Eye Center, University of Pittsburgh, Pittsburgh, PA, USA. The isolates were retrieved from a frozen −80 °C retrospective clinical collection that was de-identified and stored for diagnostic test validations. The types of isolates were determined using serum neutralization. Recently, HAdV19 has been reclassified as HAdV64 [41]; however, for the purpose of this study, it was designated as HAdV19/64. No clinical isolates of HAdV37 were identified, therefore the ATCC (American Type Culture Collection, Manassas, VA, USA) reference strain of HAdV37 was used. The clinical isolates along with the ATCC HAdV37 reference strain were grown in A549 cell (CCL-185, ATCC) monolayers and stocks were prepared, aliquoted, and frozen at –80 °C. The titers of the stock viruses were determined as described in Section 4.7. The same clinical isolate of HAdV5 used for the in vitro antiviral testing was also used for the in vivo antiviral evaluation in the Ad5/NZW rabbit ocular replication model.
(§3) A549 human lung carcinoma cells were grown and maintained in Eagle’s MEM supplemented with 10% fetal bovine serum (Sigma Cell Culture Reagents, St. Louis, MO, USA). The A549 cell line was used to prepare the adenovirus stocks and for the determination of viral titers in the Ad5/NZW rabbit ocular replication model and in the in vitro plaque reduction assays.
(§4) Plaque reduction assays were performed 2–4 times using 24-well multiplates containing A549 monolayers. One plate per virus isolate per drug was used. The 24-well multiplates were inoculated with approximately 100 plaque-forming units (PFU) of HAdV per well. After a three-hour adsorption period, the inocula were removed from all wells. […] The plates were dried, and the number of plaques per well was counted using a dissecting microscope. […] The mean and standard deviation EC50 concentrations of 2–4 trials were then determined for each HAdV isolate. […]

HAdV3 = assay: plaque reduction assay in A549 cells, HAdV3; type: cell-based; conditions: Human adenovirus sp.
Method: as §1, §2, §3, §4

[1] = tested on: nine adenovirus types that commonly infect the eye; assay: plaque reduction assay, whole panel of ocular HAdV types; type: cell-based, Human adenovirus; conditions: for range of mean EC50 concentrations across the HAdV serotypes tested: highest vs lowest mean EC50; for EC50: unidentified adenovirus
Method: as §1, §2, §3
(§5) Plaque reduction assays were performed 2–4 times using 24-well multiplates containing A549 monolayers. One plate per virus isolate per drug was used. The 24-well multiplates were inoculated with approximately 100 plaque-forming units (PFU) of HAdV per well. After a three-hour adsorption period, the inocula were removed from all wells. One ml of overlay media with 0.5% methylcellulose containing 100, 10, 1.0, 0.1, 0.01, or 0.001 μg/mL of CPE-C or cidofovir was added to 3 wells each. To the remaining 6 wells, 1 mL of overlay media with 0.5% methylcellulose and without CPE-C or cidofovir was added. The plates were incubated at 37 °C in 5% CO2 until plaque formation was visible. At that time, the cells were fixed and stained with 0.5% gentian violet containing formalin. The plates were dried, and the number of plaques per well was counted using a dissecting microscope. The CPE-C and cidofovir EC50 concentrations (concentrations that inhibits plaque formation by 50%) for each virus isolate were determined using a Fitted Line Plot Regression analysis (Minitab Version 21, State College, PA) of the average number of plaques versus drug concentration. The mean and standard deviation EC50 concentrations of 2–4 trials were then determined for each HAdV isolate. The EC50 concentrations in μg/mL were then converted to μM using the GraphPad online Molarity Calculator (https://www.graphpad.com/quickcalcs/Molarityform.cfm (accessed on 12 June 2023)).

HAdV37 = assay: plaque reduction assay in A549 cells, HAdV37; type: cell-based; conditions: Human adenovirus sp.
Method: as §1, §2, §3, §4

HAdV4 = assay: plaque reduction assay in A549 cells, HAdV4; type: cell-based; conditions: Human adenovirus sp.
Method: as §1, §2, §3, §4

HAdV19/64 = assay: plaque reduction assay in A549 cells, HAdV19/64; type: cell-based; conditions: Human adenovirus sp.
Method: as §1, §2, §3, §4

HAdV7a = assay: plaque reduction assay in A549 cells, HAdV7a; type: cell-based, Human adenovirus
Method: as §1, §2, §3
as §5, with “The CPE-C and cidofovir EC50 concentrations (concentrations that inhibits plaque formation by 50%) for each virus isolate were determined using a Fitted Line Plot Regression analysis (Minitab Version 21, State College, PA) of the average number of plaques versus drug concentration.” left out, “The EC50 concentrations in μg/mL were then converted to μM using the GraphPad online Molarity Calculator (https://www.graphpad.com/quickcalcs/Molarityform.cfm (accessed on 12 June 2023)).” left out

HAdV1 = assay: plaque reduction assay in A549 cells, HAdV1; type: cell-based; conditions: Human adenovirus sp.
Method: as §1, §2, §3, §4

HAdV2 = assay: plaque reduction assay in A549 cells, HAdV2; type: cell-based; conditions: Human adenovirus sp.
Method: as §1, §2, §3, §4

HAdV5 = assay: plaque reduction assay in A549 cells, HAdV5; type: cell-based; conditions: Human adenovirus sp.
Method: as §1, §2, §3, §4

[2] = A549, HAdV8, converted from μg/mL
[3] = HAdV8 clinical isolate, A549 cells, mean ± SD of 2–4 trials
[4] = A549, HAdV3, converted from μg/mL
[5] = HAdV3 clinical isolate, A549 cells, mean ± SD of 2–4 trials
[6] = A549, HAdV37, converted from μg/mL
[7] = HAdV37 ATCC reference strain, A549 cells, mean ± SD of 2–4 trials
[8] = A549, HAdV4, converted from μg/mL
[9] = HAdV4 clinical isolate, A549 cells, mean ± SD of 2–4 trials
[10] = A549, HAdV19/64, converted from μg/mL
[11] = HAdV19/64 clinical isolate, A549 cells, mean ± SD of 2–4 trials
[12] = Human adenovirus sp., A549, HAdV7a clinical isolate, A549 cells, mean ± SD of 2–4 trials
[13] = Human adenovirus sp., A549, HAdV7a, converted from μg/mL
[14] = A549, HAdV1, converted from μg/mL
[15] = HAdV1 clinical isolate, A549 cells, mean ± SD of 2–4 trials
[16] = A549, HAdV2, converted from μg/mL
[17] = HAdV2 clinical isolate, A549 cells, mean ± SD of 2–4 trials
[18] = A549, HAdV5, converted from μg/mL
[19] = HAdV5 clinical isolate, A549 cells, mean ± SD of 2–4 trials

SMILES | EC50 (HAdV8; [2]) [nM] | EC50 (HAdV8; [3]) [µg/mL] | EC50 (HAdV3; [4]) [µM] | EC50 (HAdV3; [5]) [µg/mL] | range of mean EC50 concentrations across the HAdV serotypes tested [1] [fold] | EC50 (HAdV37; [6]) [µM] | EC50 (HAdV37; [7]) [µg/mL] | EC50 (HAdV4; [8]) [µM] | EC50 (HAdV4; [9]) [µg/mL] | EC50 (HAdV19/64; [10]) [µM] | EC50 (HAdV19/64; [11]) [µg/mL] | EC50 (HAdV7a; [12]) [µg/mL] | EC50 (HAdV7a; [13]) [µM] | EC50 (HAdV1; [14]) [µM] | EC50 (HAdV1; [15]) [µg/mL] | EC50 (HAdV2; [16]) [µM] | EC50 (HAdV2; [17]) [µg/mL] | EC50 (HAdV5; [18]) [µM] | EC50 (HAdV5; [19]) [µg/mL] | further results
Nc1ccn([C@@H]2C=C(CO)[C@@H](O)[C@H]2O)c(=O)n1 [CPE-C, Cyclopentenylcytosine] | 246 ± 76 | 0.059 ± 0.018 | 0.165 ± 0.016 | 0.04 ± 0.004 | 2 | 0.202 ± 0.037 | 0.048 ± 0.008 | 0.134 ± 0.11 | 0.032 ± 0.026 | 0.196 ± 0.118 | 0.047 ± 0.028 | 0.055 ± 0.026 | 0.194 ± 0.057 | 0.214 ± 0.027 | 0.051 ± 0.007 | 0.198 ± 0.101 | 0.047 ± 0.024 | 0.126 ± 0.138 | 0.03 ± 0.033 | EC50 concentrations lower for CPE-C compared to cidofovir ([1]; majority of the HAdV types): approximately 100 fold; EC50s across the panel of HAdV types ([1]; nine adenovirus types that commonly infect the eye): < 0.06 µg/mL; EC50 ([1]; read-out: EC50 concentrations across the panel of HAdV types, panel of HAdV types that commonly infect the eye): < 250 nM; EC50 ([1]; read-out: EC50s across the panel of HAdV types, nine adenovirus types that commonly infect the eye): 0.03 to 0.059 µg/mL
Nc1ccn(C[C@@H](CO)OCP(=O)(O)O)c(=O)n1 [Cidofovir, cidofovir, reference compound] | 1560 ± 592 | 0.427 ± 0.173 | 14.8 ± 3.26 | 4.12 ± 0.91 | 12.6 | 17.2 ± 2.43 | 4.79 ± 0.678 | 16.5 ± 3.31 | 4.61 ± 0.925 | 17.5 ± 1.85 | 4.9 ± 0.517 | 5.37 ± 0.137 | 19.2 ± 0.491 | 18.9 ± 2.11 | 5.27 ± 0.588 | 18.3 ± 1.47 | 5.11 ± 0.41 | 17.6 ± 1.74 | 4.92 ± 0.486 | EC50 ([1]; read-out: EC50 concentrations for a majority of the HAdV serotypes, majority of the HAdV serotypes): ~5 µg/mL; EC50 (HAdV7a; HAdV7a, converted from μg/mL): 19.2 ± 0.491 µM
